Assays:
Format in all cases: ADME, organism-based
[1] = system: Mus musculus; test: Total blood clearance in C57BL/6 mouse at 1 mg/kg, iv administered as cassette dose; design: dose 1 mg/kg, route intravenous; settings: in vivo
[2] = Apparent volume of distribution at steady state in C57BL/6 mouse at 1 mg/kg, iv administered as cassette dose; design: dose 1 mg/kg, route intravenous; settings: in vivo, read-out: Vdss(app)
[3] = Terminal blood half life in C57BL/6 mouse at 1 mg/kg, iv administered as cassette dose; design: dose 1 mg/kg, route intravenous; settings: read-out: beta t1/2 (converted)
[4] = AUC (infinity) in C57BL/6 mouse at 1 mg/kg, iv administered as cassette dose; design: time infinity, dose 1 mg/kg, route intravenous; settings: plasma
[5] = Tmax in C57BL/6 mouse at 5 mg/kg, po administered as cassette dose; design: dose 5 mg/kg, route oral; settings: in vivo
[6] = Cmax in C57BL/6 mouse at 5 mg/kg, po administered as cassette dose; design: dose 5 mg/kg, route oral; settings: in vivo
[7] = Oral bioavailability in C57BL/6 mouse at 5 mg/kg administered as cassette dose; settings: in vivo
[8] = AUC (infinity) in C57BL/6 mouse at 5 mg/kg, po administered as cassette dose; design: time infinity, dose 5 mg/kg, route oral; settings: plasma

| CL [1] [µL/min/mg] | Vd [2] [L/kg] | half-life [3] [h] | AUC(0-inf) [4] [µM·h] | Tmax [5] [h] | Cmax [6] [nM] | bioavailability [7] [%] | AUC(0-inf) [8] [µM·h] | Compound |
| --- | --- | --- | --- | --- | --- | --- | --- | --- |
| 52 | 0.8 | 0.2 | 0.841 |  |  |  |  | COc1ccc(/C=C/C(=O)N2CCN(C(=O)c3ccc(OC)cc3)CC2)cc1 |
| 16 | 1.4 | 1.1 | 2.44 | 1 | 835 | 49 | 3.61 | COc1ccc(C(=O)N2CCN(C(=O)/C=C/c3ccc(Br)cc3)CC2)cc1 |
